According to PubChem BioAssay AID1963851 (Molecular Pharmacology Branch, DTP, NCI, 2024):

Tested on: 188146-221-R-J1-PDC complex spheroid viability
Assay: Anticancer human tumor 188146-221-R-J1-PDC patient-derived colon adenocarcinoma cell line growth inhibition [POLQ]
Details: for IC50: curve of first compound; for viability, T/C: stronger effect = lower value
In short: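 Growth inhibition in 3D: complex spheroids (tumor PDC, HUVEC, MSC) treated with POLQ inhibitor combinations; where Cmax unknown, highest tested concentration 10 microM, except SN-38 at 1 microM.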
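Also: spheroids exposed to compounds for seven days.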
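For viability, T/C in this document: 100% = DMSO vehicle control viability.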

Compound `C=CC(=O)N1CCN(c2nc(=O)n(-c3c(C)ccnc3C(C)C)c3nc(-c4c(O)cccc4F)c(F)cc23)C(C)C1` (configuration not stated) + Nc1ccc(C#CCN(C(=O)Cc2ncc(C(F)(F)F)cc2C(F)(F)F)c2ccc(F)cc2)nn1 has an IC50 (second compound 0.0316 µM) of over 10 µM, an IC50 (second compound 0.1 µM) of over 10 µM and an IC50 (second compound 0.316 µM) of over 10 µM. For the same compound, the IC50 (second compound 1 µM) was over 10 µM, the IC50 (second compound 3.16 µM) was over 10 µM and the IC50 (second compound 10 µM) was over 10 µM. The viability, T/C (second compound 0.0316 µM, first compound 0.0316 µM) was 104%, the viability, T/C (second compound 0.0316 µM, first compound 0.1 µM) was 107% and the viability, T/C (second compound 0.0316 µM, first compound 0.316 µM) was 103%. The viability, T/C (second compound 0.0316 µM, first compound 1 µM) was 96.5%, the viability, T/C (second compound 0.0316 µM, first compound 3.16 µM) was 104% and the viability, T/C (second compound 0.0316 µM, first compound 10 µM) was 84.9%. The viability, T/C (second compound 0.1 µM, first compound 0.0316 µM) was 95.7%, the viability, T/C (second compound 0.1 µM, first compound 0.1 µM) was 108% and the viability, T/C (second compound 0.1 µM, first compound 0.316 µM) was 101%. For the same compound, the viability, T/C (second compound 0.1 µM, first compound 1 µM) was 102%, the viability, T/C (second compound 0.1 µM, first compound 3.16 µM) was 120% and the viability, T/C (second compound 0.1 µM, first compound 10 µM) was 85.6%. The viability, T/C (second compound 0.316 µM, first compound 0.0316 µM) was 104%, the viability, T/C (second compound 0.316 µM, first compound 0.1 µM) was 99.2% and the viability, T/C (second compound 0.316 µM, first compound 0.316 µM) was 109%. For the same compound, the viability, T/C (second compound 0.316 µM, first compound 1 µM) was 82.2%, the viability, T/C (second compound 0.316 µM, first compound 3.16 µM) was 104% and the viability, T/C (second compound 0.316 µM, first compound 10 µM) was 78%. The viability, T/C (second compound 1 µM, first compound 0.0316 µM) was 108%, the viability, T/C (second compound 1 µM, first compound 0.1 µM) was 91.6% and the viability, T/C (second compound 1 µM, first compound 0.316 µM) was 92.6%. It also gave a viability, T/C (second compound 1 µM, first compound 1 µM) of 113%, a viability, T/C (second compound 1 µM, first compound 3.16 µM) of 97.4% and a viability, T/C (second compound 1 µM, first compound 10 µM) of 103%. For the same compound, the viability, T/C (second compound 3.16 µM, first compound 0.0316 µM) was 96.8%, the viability, T/C (second compound 3.16 µM, first compound 0.1 µM) was 108% and the viability, T/C (second compound 3.16 µM, first compound 0.316 µM) was 92.4%. The viability, T/C (second compound 3.16 µM, first compound 1 µM) was 104%, the viability, T/C (second compound 3.16 µM, first compound 3.16 µM) was 97.5% and the viability, T/C (second compound 3.16 µM, first compound 10 µM) was 101%. For the same compound, the viability, T/C (second compound 10 µM, first compound 0.0316 µM) was 101%, the viability, T/C (second compound 10 µM, first compound 0.1 µM) was 104% and the viability, T/C (second compound 10 µM, first compound 0.316 µM) was 107%. For the same compound, the viability, T/C (second compound 10 µM, first compound 1 µM) was 107%, the viability, T/C (second compound 10 µM, first compound 3.16 µM) was 98.1% and the viability, T/C (second compound 10 µM, first compound 10 µM) was 96.4%.
